Molecular target: T1, human CB2R (Homo sapiens, UniProt P34972)
T1 construct: host or cells: CHO cells
Assay: CB2R mediated modulation of cAMP synthesis
Type: cell-based
Details: CHO cells expressing human CB2R; concentration at which 50% of the forskolin-stimulated cAMP synthesis was inhibited; 100% defined by 1 uM CP55940; read-out: CB2 EC50
Experimental: B. CB2R Mediated Modulation of Camp Synthesis:
Compounds of the invention were evaluated for their CB2 agonist or inverse agonistic activity in accordance with the following experimental method.
CHO cells expressing human CB2R (Euroscreen) were plated at a density of 5000 cells per well in 384 well plates and incubated overnight at 37° C. After removing the media, the cells were treated with test compounds diluted in stimulation buffer containing 1 mM IBMX, 0.25% BSA and 10 uM Forskolin. The assay was incubated for 30 minutes at 37° C. Cells were lysed and the cAMP concentration was measured using DiscoverX-XS cAMP kit, following the manufacturer's protocol. In this setting, agonists will decrease forskolin induced production of cAMP while inverse agonists will further increase forskolin induced production of cAMP. EC50 of agonists were calculated as follows. The maximal amount of cAMP produced by forskolin compared to the level of cAMP inhibited by 1 uM CP55940 is defined as 100%. The EC50 value of each test compound was determined as the concentration at which 50% of the forskolin-stimulated cAMP synthesis was inhibited. Data was analyzed using a four-parameter logistic model. (Model 205 of XLfit 4.0).

T1 sequence (P34972 whole entry): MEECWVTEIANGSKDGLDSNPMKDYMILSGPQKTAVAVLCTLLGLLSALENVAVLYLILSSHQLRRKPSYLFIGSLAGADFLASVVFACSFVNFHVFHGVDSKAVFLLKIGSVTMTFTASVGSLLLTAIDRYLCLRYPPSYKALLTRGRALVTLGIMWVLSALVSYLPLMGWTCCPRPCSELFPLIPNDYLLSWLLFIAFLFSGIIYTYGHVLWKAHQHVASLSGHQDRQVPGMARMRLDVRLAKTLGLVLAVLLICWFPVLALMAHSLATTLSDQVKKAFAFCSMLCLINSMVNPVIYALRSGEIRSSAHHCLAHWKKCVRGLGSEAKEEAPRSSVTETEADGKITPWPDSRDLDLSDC

SMILES | EC50 [nM]
Cn1nc(C(C)(C)C)cc1-c1nnc(C(C)(C)S(=O)(=O)c2ccc(F)cc2)[nH]1 [Example 44, 3-(5-tert-butyl-2-methyl-2H-pyrazol-3-yl)-5-[1-(4-fluoro-benzenesulfonyl)-1-methyl-ethyl]-4H-[1,2,4]triazole] | 2
CC(C)(C)c1cc(-c2nnc(C(C)(C)S(=O)(=O)c3ccc(F)cc3)[nH]2)on1 [Example 45, 3-(3-tert-butyl-isoxazol-5-yl)-5-[1-(4-fluoro-benzenesulfonyl)-1-methyl-ethyl]-4H-[1,2,4]triazole] | 255
Cn1nc(C(C)(C)C)cc1-c1nnc(C(C)(C)S(=O)(=O)CC2CCOCC2)[nH]1 [Example 46, 3-(5-tert-butyl-2-methyl-2H-pyrazol-3-yl)-5-[1-methyl-1-(tetrahydro-pyran-4-ylmethanesulfonyl)-ethyl]-4H-[1,2,4]triazole] | 414
Cn1nc(C(C)(C)C)cc1-c1nnc(C(C)(C)S(=O)(=O)Cc2ccc(F)cc2)[nH]1 [Example 48, 3-(5-tert-butyl-2-methyl-2H-pyrazol-3-yl)-5-[1-(4-fluoro-phenylmethanesulfonyl)-1-methyl-ethyl]-4H-[1,2,4]triazole] | 129
CC(C)(C)c1cc(-c2nnc(C(C)(C)S(=O)(=O)Cc3ccc(F)cc3)[nH]2)on1 [Example 49, 3-(3-tert-Butyl-isoxazol-5-yl)-5-[1-(4-fluoro-phenylmethanesulfonyl)-1-methyl-ethyl]-4H-[1,2,4]triazole] | 293
Cn1nc(C(C)(C)C)cc1-c1nnc(C(C)(C)S(=O)(=O)CC2CCC(O)CC2)[nH]1 (stereo not drawn) [Example 51, 4-{2-[5-(5-tert-butyl-2-methyl-2H-pyrazol-3-yl)-4H-[1,2,4]triazol-3-yl]-propane-2-sulfonylmethyl}-cyclohexanol] | 459

From patent publication US20120015988A1, “Sulfone Compounds Which Modulate The CB2 Receptor” (BOEHRINGER INGELHEIM INTERNATIONAL GMBH, priority 2008, published 2012)
